Reference: PubChem BioAssay (NCI)
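48-hour exposure; five concentrations; linearly interpolated endpoints. The concentration for full growth arrest is given as TGI.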

What was measured:
Assay in all cases: NCI anticancer screen, dose series, 48 h
UO-31 renal = tested on: UO-31 renal
SK-MEL-28 melanoma = tested on: SK-MEL-28 melanoma
SF-268 CNS = tested on: SF-268 CNS
786-0 renal = tested on: 786-0 renal
U251 CNS = tested on: U251 CNS
SNB-78 CNS = tested on: SNB-78 CNS
SK-MEL-5 melanoma = tested on: SK-MEL-5 melanoma
SW-620 colon = tested on: SW-620 colon
RXF 393 renal = tested on: RXF 393 renal
MOLT-4 leukemia = tested on: MOLT-4 leukemia
UACC-257 melanoma = tested on: UACC-257 melanoma
SNB-75 CNS = tested on: SNB-75 CNS
KM20L2 colon = tested on: KM20L2 colon
DMS 273 small cell lung = tested on: DMS 273 small cell lung
NCI-H23 lung = tested on: NCI-H23 lung
LOX IMVI melanoma = tested on: LOX IMVI melanoma
HCT-15 colon = tested on: HCT-15 colon
NCI-H460 lung = tested on: NCI-H460 lung
CAKI-1 renal = tested on: CAKI-1 renal
NCI-H226 lung = tested on: NCI-H226 lung
SNB-19 CNS = tested on: SNB-19 CNS
NCI-H522 lung = tested on: NCI-H522 lung
IGROV1 ovarian = tested on: IGROV1 ovarian
M19-MEL melanoma = tested on: M19-MEL melanoma
HCT-116 colon = tested on: HCT-116 colon
OVCAR-5 ovarian = tested on: OVCAR-5 ovarian
OVCAR-8 ovarian = tested on: OVCAR-8 ovarian
DMS 114 small cell lung = tested on: DMS 114 small cell lung
DLD-1 colon = tested on: DLD-1 colon
OVCAR-3 ovarian = tested on: OVCAR-3 ovarian
SR leukemia = tested on: SR leukemia
SK-OV-3 ovarian = tested on: SK-OV-3 ovarian
COLO 205 colon = tested on: COLO 205 colon
LXFL 529 NSCLC = tested on: LXFL 529 NSCLC
XF 498 CNS = tested on: XF 498 CNS
A498 renal = tested on: A498 renal
ACHN renal = tested on: ACHN renal
HT29 colon = tested on: HT29 colon
TK-10 renal = tested on: TK-10 renal
HCC-2998 colon = tested on: HCC-2998 colon
HL-60(TB) leukemia = tested on: HL-60(TB) leukemia
SK-MEL-2 melanoma = tested on: SK-MEL-2 melanoma
SN12C renal = tested on: SN12C renal
EKVX NSCLC = tested on: EKVX NSCLC
UACC-62 melanoma = tested on: UACC-62 melanoma
KM12 colon = tested on: KM12 colon
MALME-3M melanoma = tested on: MALME-3M melanoma
SF-539 CNS = tested on: SF-539 CNS
CCRF-CEM leukemia = tested on: CCRF-CEM leukemia
A549 NSCLC = tested on: A549 NSCLC
SF-295 CNS = tested on: SF-295 CNS
HOP-92 NSCLC = tested on: HOP-92 NSCLC
K-562 leukemia = tested on: K-562 leukemia
M14 melanoma = tested on: M14 melanoma
HOP-18 NSCLC = tested on: HOP-18 NSCLC
RPMI-8226 leukemia = tested on: RPMI-8226 leukemia

Measured: TGI

Nc1ccn(CCOC(c2ccccc2)P(=O)(O)O)c(=O)n1 (stereo unspecified)
not listed: HOP-92 NSCLC | K-562 leukemia | M14 melanoma | HOP-18 NSCLC | RPMI-8226 leukemia
> 100 µM: all other assays above

CO/N=C(/C(=O)Nc1c[n+](CC(=O)[O-])cs1)c1csc(N)n1
not listed: SK-MEL-28 melanoma | RXF 393 renal | SNB-75 CNS | M19-MEL melanoma | DMS 114 small cell lung | SR leukemia
> 100 µM: all other assays above
